Data reported in patent US11912682B2, “Isoindolinone compounds” (Monte Rosa Therapeutics, Inc., priority 2021, dated 2024).

Columns and labels:
[1] = biological target: GSPT1 (Homo sapiens (Human), UniProt P15170+Q96SW2); experiment: quantitative proteomics analysis in ABC1 cells; type: cell-based; details: 100 nM, 6 hr
Method: Quantitative Proteomics Analysis: ABC1 cells were treated with either DMSO (2 replicates) or compound 10 at 100 nM (2 replicates) for 6 hr. Proteins were extracted with the PreOmics iST-NHS lysis buffer (#P.O.00030). The samples were then processed using the PreOmics kit following their recommended protocol with minor modifications. In brief, the proteins were reduced, alkylated and digested for 2 h at 37° C. The peptides were then labelled with TMT reagent (1:4; peptide:TMT label) (Thermo Fisher Scientific). After quenching, the peptides were purified, and the 16 samples were combined to a 1:1 ratio. […] Eluted TMT peptides were analyzed on an Orbitrap Eclipse mass spectrometer (Thermo Fisher Scientific). […] Precursors were fragmented by CID at a normalized collision energy (NCE) of 35% and analyzed in the ion trap. Following MS2, synchronous precursor selection (SPS) MS3 scans were collected by using high energy collision-induced dissociation (HCD) and fragments were analyzed using the Orbitrap (NCE 55%, AGC target 1×10^5, maximum injection time 120 ms, resolution 60,000). Protein identification and quantification were performed using Proteome Discoverer 2.4.0.305 with the SEQUEST algorithm and Uniprot human database (2021 Jan. 29, 20614 protein sequences). […] Protein relative quantification was performed using an in-house developed java notebook. […]

[2] = tested on: human cell line NCI-H1770; experiment: N-Myc-driven mouse xenograft model, NCI-H1770 (FIG. 3C); type: in vivo
[3] = biological target: SALL4 (Homo sapiens (Human), UniProt Q9UJQ4); experiment: substrate degradation in cells (FIG. 1A), SALL4; type: cell-based; details: highest concentration tested of 30 μM
Chain of SALL4 (Q9UJQ4 whole entry, looked up): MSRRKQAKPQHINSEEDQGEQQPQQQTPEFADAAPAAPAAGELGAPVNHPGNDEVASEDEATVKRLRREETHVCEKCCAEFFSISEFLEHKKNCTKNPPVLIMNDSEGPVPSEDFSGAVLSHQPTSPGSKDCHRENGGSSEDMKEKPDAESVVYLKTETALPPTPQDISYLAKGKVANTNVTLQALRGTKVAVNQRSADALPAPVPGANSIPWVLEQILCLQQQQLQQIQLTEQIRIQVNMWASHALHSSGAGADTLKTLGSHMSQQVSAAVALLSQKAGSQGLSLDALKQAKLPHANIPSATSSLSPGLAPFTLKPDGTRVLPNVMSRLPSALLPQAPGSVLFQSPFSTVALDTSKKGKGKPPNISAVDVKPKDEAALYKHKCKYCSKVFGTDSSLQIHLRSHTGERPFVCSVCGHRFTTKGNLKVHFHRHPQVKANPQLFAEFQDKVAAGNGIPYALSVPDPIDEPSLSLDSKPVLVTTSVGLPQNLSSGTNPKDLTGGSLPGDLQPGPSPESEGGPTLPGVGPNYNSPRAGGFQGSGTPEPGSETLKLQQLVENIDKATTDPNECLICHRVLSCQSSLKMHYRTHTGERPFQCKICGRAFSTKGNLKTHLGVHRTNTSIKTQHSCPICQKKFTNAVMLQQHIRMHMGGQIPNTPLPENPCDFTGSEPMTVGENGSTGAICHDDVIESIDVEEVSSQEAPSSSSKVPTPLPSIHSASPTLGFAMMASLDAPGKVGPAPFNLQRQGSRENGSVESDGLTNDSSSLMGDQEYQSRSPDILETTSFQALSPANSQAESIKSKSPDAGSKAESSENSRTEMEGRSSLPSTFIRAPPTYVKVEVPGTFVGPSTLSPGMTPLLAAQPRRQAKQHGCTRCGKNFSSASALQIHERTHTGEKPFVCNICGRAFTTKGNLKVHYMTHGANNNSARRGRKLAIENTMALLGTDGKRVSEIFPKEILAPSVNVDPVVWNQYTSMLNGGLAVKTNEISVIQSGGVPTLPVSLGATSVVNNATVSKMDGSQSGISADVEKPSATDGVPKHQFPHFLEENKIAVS

Chain of GSPT1 (P15170 whole entry): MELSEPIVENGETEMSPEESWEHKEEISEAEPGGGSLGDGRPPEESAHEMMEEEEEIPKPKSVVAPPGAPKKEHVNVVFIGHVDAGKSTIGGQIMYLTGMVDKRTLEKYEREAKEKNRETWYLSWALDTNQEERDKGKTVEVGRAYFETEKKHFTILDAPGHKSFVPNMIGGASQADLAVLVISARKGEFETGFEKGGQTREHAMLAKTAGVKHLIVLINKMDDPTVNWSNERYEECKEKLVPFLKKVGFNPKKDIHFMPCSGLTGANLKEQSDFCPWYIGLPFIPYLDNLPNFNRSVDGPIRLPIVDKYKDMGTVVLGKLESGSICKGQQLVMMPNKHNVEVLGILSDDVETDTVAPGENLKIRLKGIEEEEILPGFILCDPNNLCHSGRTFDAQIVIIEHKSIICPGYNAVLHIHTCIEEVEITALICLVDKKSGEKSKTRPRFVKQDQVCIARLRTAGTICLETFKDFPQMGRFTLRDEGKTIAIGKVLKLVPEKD
Chain of GSPT1 (Q96SW2 whole entry): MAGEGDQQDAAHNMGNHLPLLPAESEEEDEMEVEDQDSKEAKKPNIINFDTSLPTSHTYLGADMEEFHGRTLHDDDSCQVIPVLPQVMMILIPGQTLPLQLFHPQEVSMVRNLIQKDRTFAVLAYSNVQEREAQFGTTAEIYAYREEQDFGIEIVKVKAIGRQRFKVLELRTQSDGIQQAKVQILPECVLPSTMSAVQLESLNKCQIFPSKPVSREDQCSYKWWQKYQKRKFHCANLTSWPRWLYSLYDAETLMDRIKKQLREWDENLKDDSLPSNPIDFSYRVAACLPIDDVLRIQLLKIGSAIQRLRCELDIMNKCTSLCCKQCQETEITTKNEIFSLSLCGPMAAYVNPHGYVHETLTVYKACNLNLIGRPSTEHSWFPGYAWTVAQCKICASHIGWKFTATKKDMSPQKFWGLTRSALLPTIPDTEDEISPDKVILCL
Chain of GSPT1 (Q16531 2-1140 partner): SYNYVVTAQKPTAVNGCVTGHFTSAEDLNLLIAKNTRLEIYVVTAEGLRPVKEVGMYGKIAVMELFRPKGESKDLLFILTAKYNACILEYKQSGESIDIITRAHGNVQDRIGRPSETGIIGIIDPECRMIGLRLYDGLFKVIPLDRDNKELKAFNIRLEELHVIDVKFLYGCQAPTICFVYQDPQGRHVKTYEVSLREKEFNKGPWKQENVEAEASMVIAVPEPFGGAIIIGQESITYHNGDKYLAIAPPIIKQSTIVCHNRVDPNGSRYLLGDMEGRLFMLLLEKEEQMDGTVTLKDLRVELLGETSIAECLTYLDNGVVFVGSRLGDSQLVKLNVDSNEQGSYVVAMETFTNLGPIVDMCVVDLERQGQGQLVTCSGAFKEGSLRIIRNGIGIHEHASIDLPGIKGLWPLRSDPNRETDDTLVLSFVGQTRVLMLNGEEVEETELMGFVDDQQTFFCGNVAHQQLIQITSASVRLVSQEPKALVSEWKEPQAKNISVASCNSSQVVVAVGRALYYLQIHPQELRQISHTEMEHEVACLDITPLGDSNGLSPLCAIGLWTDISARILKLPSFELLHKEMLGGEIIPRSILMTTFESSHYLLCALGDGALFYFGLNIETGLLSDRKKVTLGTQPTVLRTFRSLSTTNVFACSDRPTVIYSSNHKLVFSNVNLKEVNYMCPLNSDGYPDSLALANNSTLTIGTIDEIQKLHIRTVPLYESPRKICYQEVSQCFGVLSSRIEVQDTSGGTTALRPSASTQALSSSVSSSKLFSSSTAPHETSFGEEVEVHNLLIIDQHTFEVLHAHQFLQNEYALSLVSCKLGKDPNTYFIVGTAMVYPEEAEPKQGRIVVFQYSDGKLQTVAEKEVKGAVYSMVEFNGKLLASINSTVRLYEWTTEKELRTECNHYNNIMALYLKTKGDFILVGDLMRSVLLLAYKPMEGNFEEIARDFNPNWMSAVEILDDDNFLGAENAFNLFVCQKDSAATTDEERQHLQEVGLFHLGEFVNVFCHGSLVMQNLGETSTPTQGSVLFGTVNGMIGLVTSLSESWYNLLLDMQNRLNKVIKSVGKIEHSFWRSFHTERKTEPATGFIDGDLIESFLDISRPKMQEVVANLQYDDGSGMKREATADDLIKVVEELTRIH

Cc1ccc(NC(=O)OCc2ccc3c(c2)C(=O)N(C2CCC(=O)NC2=O)C3)cc1Cl (stereo not drawn) [Compound 10]
protein downregulation by mass spectrometry-based proteomics (FIG. 1B) [1]: GSPT1 was the most statistically significant downregulated protein | tumor size (tumor volume) ([2]; 3 mg/kg PO once daily): tumor size decreased and remained so until the end of the study | tumor size (tumor volume) ([2]; 6 mg/kg PO five days on and nine days off): tumor size decreased and remained so until the end of the study | body weight ([2]; oral administration): no body weight loss | effect on tumor growth (tumor volume) ([2]; oral administration): tumor growth inhibition | SALL4 degradation (FIG. 1A) [3]: none of the known the substrates IKZF1, IKZF3, SALL4, CK1alpha was degraded
